PubChem BioAssay AID2060907 (Molecular Pharmacology Branch, DTP, NCI, 2025)

System: 388556-164-R-J1-PDC complex spheroid viability
Assay: Anticancer human tumor 388556-164-R-J1-PDC patient-derived colon adenocarcinoma cell line growth inhibition [RAS]
Conditions: for IC50: curve of first compound; for viability, T/C: stronger effect = lower value; active = viability on the fitted dose curve at most 10% of control; inactive = the rest
Procedure, shortened: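 Agents were tested in combination matrices in half-log decrements from a top concentration at or near clinical Cmax (10 microM if undetermined). Targets were multi-cell spheroids of tumour lines plus HUVEC and MSC stromal cells.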

[1] = second compound 0.0316 µM, first compound 0.00316 µM
[2] = second compound 0.0316 µM, first compound 0.01 µM
[3] = second compound 0.0316 µM, first compound 0.0316 µM
[4] = second compound 0.0316 µM, first compound 0.1 µM
[5] = second compound 0.0316 µM, first compound 0.316 µM
[6] = second compound 0.0316 µM, first compound 1 µM
[7] = second compound 0.1 µM, first compound 0.00316 µM
[8] = second compound 0.1 µM, first compound 0.01 µM
[9] = second compound 0.1 µM, first compound 0.0316 µM
[10] = second compound 0.1 µM, first compound 0.1 µM
[11] = second compound 0.1 µM, first compound 0.316 µM
[12] = second compound 0.1 µM, first compound 1 µM
[13] = second compound 0.316 µM, first compound 0.00316 µM
[14] = second compound 0.316 µM, first compound 0.01 µM
[15] = second compound 0.316 µM, first compound 0.0316 µM
[16] = second compound 0.316 µM, first compound 0.1 µM
[17] = second compound 0.316 µM, first compound 0.316 µM
[18] = second compound 0.316 µM, first compound 1 µM
[19] = second compound 1 µM, first compound 0.00316 µM
[20] = second compound 1 µM, first compound 0.01 µM
[21] = second compound 1 µM, first compound 0.0316 µM
[22] = second compound 1 µM, first compound 0.1 µM
[23] = second compound 1 µM, first compound 0.316 µM
[24] = second compound 1 µM, first compound 1 µM
[25] = second compound 3.16 µM, first compound 0.00316 µM
[26] = second compound 3.16 µM, first compound 0.01 µM
[27] = second compound 3.16 µM, first compound 0.0316 µM
[28] = second compound 3.16 µM, first compound 0.1 µM
[29] = second compound 3.16 µM, first compound 0.316 µM
[30] = second compound 3.16 µM, first compound 1 µM
[31] = second compound 10 µM, first compound 0.00316 µM
[32] = second compound 10 µM, first compound 0.01 µM
[33] = second compound 10 µM, first compound 0.0316 µM
[34] = second compound 10 µM, first compound 0.1 µM
[35] = second compound 10 µM, first compound 0.316 µM
[36] = second compound 10 µM, first compound 1 µM
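Note: spheroids exposed to compound for 7 days before readout.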
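Throughout, for viability, T/C: 100% = DMSO vehicle control luminescence.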

C=CC(=O)N1CCN(c2nc(OCC3CCCN3C)nc3c(F)c(-c4nc(N)cc(C)c4C(F)(F)F)c(Cl)cc23)C(C)C1 (stereo not drawn) + C#Cc1c(F)ccc2cc(O)cc(-c3ncc4c(N5CC6CCC(C5)N6)nc(OCC56CCCN5CC(F)C6)nc4c3F)c12
inactive: viability, T/C [1] 102% | viability, T/C [2] 117% | viability, T/C [3] 110% | viability, T/C [4] 107% | viability, T/C [5] 110% | viability, T/C [6] 111% | viability, T/C [7] 108% | viability, T/C [8] 109% | viability, T/C [9] 105% | viability, T/C [10] 109% | viability, T/C [11] 112% | viability, T/C [12] 102% | viability, T/C [13] 99.4% | viability, T/C [14] 94.5% | viability, T/C [15] 97.4% | viability, T/C [16] 102% | viability, T/C [17] 111% | viability, T/C [18] 96.2% | viability, T/C [19] 95.3% | viability, T/C [20] 93.1% | viability, T/C [21] 75.5% | viability, T/C [22] 89.2% | viability, T/C [23] 107% | viability, T/C [24] 86.5% | viability, T/C [25] 84.4% | viability, T/C [26] 80.9% | viability, T/C [27] 85.3% | viability, T/C [28] 92.1% | viability, T/C [29] 99.6% | viability, T/C [30] 80% | viability, T/C [31] 72.3% | viability, T/C [32] 58.4% | viability, T/C [33] 68.7% | viability, T/C [34] 68.8% | viability, T/C [35] 76.2% | viability, T/C [36] 55.8%
> 1000 nM: IC50 (second compound 0.0316 µM) | IC50 (second compound 0.1 µM) | IC50 (second compound 0.316 µM) | IC50 (second compound 1 µM) | IC50 (second compound 3.16 µM) | IC50 (second compound 10 µM)

CC(=O)OC12COC1CC(O)C1(C)C(=O)C(O)C3=C(C)C(OC(=O)C(O)C(NC(=O)OC(C)(C)C)c4ccccc4)CC(O)(C(OC(=O)c4ccccc4)C21)C3(C)C (stereo not drawn) + C#Cc1c(F)ccc2cc(O)cc(-c3ncc4c(N5CC6CCC(C5)N6)nc(OCC56CCCN5CC(F)C6)nc4c3F)c12
inactive: viability, T/C [3] 80.7% | viability, T/C [4] 80.8% | viability, T/C [5] 76.1% | viability, T/C [6] 76.1% | viability, T/C (second compound 0.0316 µM, first compound 3.16 µM) 74.5% | viability, T/C (second compound 0.0316 µM, first compound 10 µM) 75.1% | viability, T/C [9] 87.6% | viability, T/C [10] 80.8% | viability, T/C [11] 71.5% | viability, T/C [12] 75.2% | viability, T/C (second compound 0.1 µM, first compound 3.16 µM) 78.9% | viability, T/C (second compound 0.1 µM, first compound 10 µM) 75.4% | viability, T/C [15] 82.5% | viability, T/C [16] 73.7% | viability, T/C [17] 67.4% | viability, T/C [18] 69.7% | viability, T/C (second compound 0.316 µM, first compound 3.16 µM) 77.1% | viability, T/C (second compound 0.316 µM, first compound 10 µM) 59% | viability, T/C [21] 78.5% | viability, T/C [22] 74.4% | viability, T/C [23] 59.6% | viability, T/C [24] 67.4% | viability, T/C (second compound 1 µM, first compound 3.16 µM) 69% | viability, T/C (second compound 1 µM, first compound 10 µM) 49.8% | viability, T/C [27] 72.8% | viability, T/C [28] 58.2% | viability, T/C [29] 59% | viability, T/C [30] 65.8% | viability, T/C (second compound 3.16 µM, first compound 3.16 µM) 63.3% | viability, T/C (second compound 3.16 µM, first compound 10 µM) 40.2% | viability, T/C [33] 56.6% | viability, T/C [34] 48.2% | viability, T/C [35] 52.4% | viability, T/C [36] 54.7% | viability, T/C (second compound 10 µM, first compound 3.16 µM) 40.1% | viability, T/C (second compound 10 µM, first compound 10 µM) 35.5%
> 10000 nM: IC50 (second compound 0.0316 µM) | IC50 (second compound 0.1 µM) | IC50 (second compound 0.316 µM) | IC50 (second compound 1 µM)
811 nM: IC50 (second compound 10 µM)
6130 nM: IC50 (second compound 3.16 µM)

CCc1c2c(nc3ccc(O)cc13)-c1cc3c(c(=O)n1C2)COC(=O)[C@]3(O)CC + C#Cc1c(F)ccc2cc(O)cc(-c3ncc4c(N5CC6CCC(C5)N6)nc(OCC56CCCN5CC(F)C6)nc4c3F)c12
42.8 nM: IC50 (second compound 10 µM)
85.6 nM: IC50 (second compound 3.16 µM)
inactive: viability, T/C (second compound 0.0316 µM, first compound 0.000949 µM) 94.4% | viability, T/C (second compound 0.0316 µM, first compound 0.003 µM) 96.1% | viability, T/C (second compound 0.0316 µM, first compound 0.00949 µM) 83.6% | viability, T/C (second compound 0.0316 µM, first compound 0.03 µM) 69% | viability, T/C (second compound 0.0316 µM, first compound 0.0949 µM) 50.4% | viability, T/C (second compound 0.0316 µM, first compound 0.3 µM) 36.2% | viability, T/C (second compound 0.1 µM, first compound 0.000949 µM) 108% | viability, T/C (second compound 0.1 µM, first compound 0.003 µM) 82.4% | viability, T/C (second compound 0.1 µM, first compound 0.00949 µM) 84.4% | viability, T/C (second compound 0.1 µM, first compound 0.03 µM) 70.3% | viability, T/C (second compound 0.1 µM, first compound 0.0949 µM) 52.6% | viability, T/C (second compound 0.1 µM, first compound 0.3 µM) 31.6% | viability, T/C (second compound 0.316 µM, first compound 0.000949 µM) 93.6% | viability, T/C (second compound 0.316 µM, first compound 0.003 µM) 94.8% | viability, T/C (second compound 0.316 µM, first compound 0.00949 µM) 71.4% | viability, T/C (second compound 0.316 µM, first compound 0.03 µM) 67.2% | viability, T/C (second compound 0.316 µM, first compound 0.0949 µM) 55.8% | viability, T/C (second compound 0.316 µM, first compound 0.3 µM) 25.5% | viability, T/C (second compound 1 µM, first compound 0.000949 µM) 92.1% | viability, T/C (second compound 1 µM, first compound 0.003 µM) 89% | viability, T/C (second compound 1 µM, first compound 0.00949 µM) 60.5% | viability, T/C (second compound 1 µM, first compound 0.03 µM) 71.4% | viability, T/C (second compound 1 µM, first compound 0.0949 µM) 50.5% | viability, T/C (second compound 1 µM, first compound 0.3 µM) 23.3% | viability, T/C (second compound 3.16 µM, first compound 0.000949 µM) 80.2% | viability, T/C (second compound 3.16 µM, first compound 0.003 µM) 72.8% | viability, T/C (second compound 3.16 µM, first compound 0.00949 µM) 66.2% | viability, T/C (second compound 3.16 µM, first compound 0.03 µM) 60.1% | viability, T/C (second compound 3.16 µM, first compound 0.0949 µM) 53.8% | viability, T/C (second compound 3.16 µM, first compound 0.3 µM) 20.8% | viability, T/C (second compound 10 µM, first compound 0.000949 µM) 72.4% | viability, T/C (second compound 10 µM, first compound 0.003 µM) 61.4% | viability, T/C (second compound 10 µM, first compound 0.00949 µM) 63% | viability, T/C (second compound 10 µM, first compound 0.03 µM) 55.1% | viability, T/C (second compound 10 µM, first compound 0.0949 µM) 41.1% | viability, T/C (second compound 10 µM, first compound 0.3 µM) 20.6%
94.1 nM: IC50 (second compound 0.0316 µM)
78.1 nM: IC50 (second compound 1 µM)
104 nM: IC50 (second compound 0.1 µM)
97.8 nM: IC50 (second compound 0.316 µM)

Nc1ccn(C2OC(CO)C(O)C2(F)F)c(=O)n1 (stereo not drawn) + C#Cc1c(F)ccc2cc(O)cc(-c3ncc4c(N5CC6CCC(C5)N6)nc(OCC56CCCN5CC(F)C6)nc4c3F)c12
inactive: viability, T/C [1] 95% | viability, T/C [2] 95.6% | viability, T/C [3] 86% | viability, T/C [4] 79.5% | viability, T/C [5] 76% | viability, T/C [6] 72.6% | viability, T/C [7] 106% | viability, T/C [8] 96.6% | viability, T/C [9] 80.4% | viability, T/C [10] 74.9% | viability, T/C [11] 74.9% | viability, T/C [12] 78.5% | viability, T/C [13] 98.9% | viability, T/C [14] 93.2% | viability, T/C [15] 60.9% | viability, T/C [16] 74.8% | viability, T/C [17] 75.8% | viability, T/C [18] 64.7% | viability, T/C [19] 98.6% | viability, T/C [20] 82.5% | viability, T/C [21] 60.1% | viability, T/C [22] 76.9% | viability, T/C [23] 75.5% | viability, T/C [24] 54.2% | viability, T/C [25] 82.6% | viability, T/C [26] 70.1% | viability, T/C [27] 69.5% | viability, T/C [28] 67.1% | viability, T/C [29] 68% | viability, T/C [30] 54.1% | viability, T/C [31] 76.3% | viability, T/C [32] 67.1% | viability, T/C [33] 52.6% | viability, T/C [34] 54.9% | viability, T/C [35] 48.5% | viability, T/C [36] 49.1%
> 1000 nM: IC50 (second compound 0.0316 µM) | IC50 (second compound 0.1 µM) | IC50 (second compound 0.316 µM) | IC50 (second compound 1 µM) | IC50 (second compound 3.16 µM) | IC50 (second compound 10 µM)
